Measured values published in US10508113B2, “Inhibitors of tyrosine kinase 2 mediated signaling” (AbbVie Inc., priority 2018, dated 2019).

Tests used:
Jak2 = target: T1, Jak2 (Homo sapiens, UniProt O60674); experiment: Jak2 (PSTATS UT7) alpha screen assay: inhibition of EPO induced phosphorylation of STAT5 in UT7 cells; format: cell-based; settings: calculated from tabulated EC50 data (Jak2 / Tyk2)
T1 construct: Cell Type: UT7 cells engineered to express the erythropoietin (EPO) receptor; endogenous in cells; host or cells: UT7 cells engineered to express the EPO receptor
Experimental: 3. JAK2 (PSTATS UT7) ALPHA SCREEN ASSAY
Erythropoietin (EPO) is known to transduce its signal through EPO receptor via Jak2. Activity against Jak2 was therefore measured by determining inhibition of EPO induced phosphorylation of STATS in UT7 cells. […] Materials
Cell Type: UT7 cells engineered to express the erythropoietin (EPO) receptor; Culture Medium: Dulbecco's Modified Eagle Medium (DMEM) with 2 mM L-glutamine, 10 mM hydroxyethyl piperazineethanesulfonic acid (HEPES), 10% heat-inactivated fetal bovine serum (FBS) and Stock EPO (5000U in 250 uL, need 5U/mL, so add 250 μL to 1L of media); Assay Medium: 5% FBS ultra-low IgG and 1% Pen/Strep. Compounds were made-up in 100% dimethyl sulfoxide (DMSO).
Day One - Starve Cells: 4 Flasks for one 384 plate (spin down @1000 rpm for 10 minutes and add DMEM with no EPO).
(§1) Day Two—Compound Dilutions:
i. Manual 8-point 1:3 dilution curve: 5 mM top concentration dispensed in row A of a
Corning 96-well polypropylene plate, columns 2-12. DMSO dispensed in position A01 for low and high controls. Compounds were serially diluted 1:3 by adding 10 μL stock to 20 μL DMSO down the plate.
ii. Media dilution of compounds: Serially diluted compounds were diluted 1:50 in assay medium by adding 4 μL compound to 196 μL assay medium in a Corning 96-well polypropylene plate.
384 Alpha Screen Plate Set up: Transferred 2.5 μL/well of compound solution from last dilution plate. Replicates were vertical, so that one column of the 96-well dilution plate goes into one column on the 384-well plate twice. Plated 1×10^5 starved cells/well in 5μL. Washed cells in 10 mL Hank's balanced salt solution (HBSS) after spinning down. Counted live cells. Multiplied by dilution factor and 10,000 (constant) to get the concentration of viable cells. Multiplied by volume of cells to get the total number of live cells. Divided by 20,000,000 cells/mL to get the volume needed. Subtracted the original volume to get the volume to be added to get the final concentration of cells. Mixed in reservoir if needed, ensuring that all cell clumps are broken up (if not broken up, they were removed from the suspension). Cells were plated at 5 μL/well in gray Alpha Screen 384-well plate. Spinned the plate to bring the contents to the bottom of the wells at 400 rpm for 2 minutes. Top final compound concentration: 25 μM. Sealed with adhesive and tapped gently. Incubated cells at 37° C. for 30 minutes.
c. EPO Stimulation (p STATS)
Once cells were in incubator, immediately prepared working stock of EPO (1 nM final assay concentration). EPO stock=2860 nM of sterile filtered liquid in sodium citrate buffer (1 liter of ddH2O containing 5.9 g of sodium citrate, 5.8 g of sodium chloride and 0.06 g of citric acid). Diluted 1:22.72 by adding 4.44 stock EPO to 95.6 pi assay media, then dilute again […] depending on how much volume is needed for the assay plates. Used assay medium to bring to volume. Added 2.5 μL EPO to each well. Spinned plate at 400 rpm briefly; tap the plate gently before covering with an adhesive seal. Cells were incubated at 37° C. for 20 minutes.
Added 2.5 μL of 5X Lysis buffer to each well. Spinned plate at 400 rpm briefly. Incubated at room temperature (on orbital shaker) for 10 minutes.
e. Protein (A) Acceptor Beads Preparation: (Light sensitive)
Phosphorylated Signal Transducer and Activator of Transcription 5 (pSTAT5) was quantified using the PerkinElmer SureFire pSTATS (Tyrosine 694/699) Assay. Calculated total volume needed (wells×15 μL×30%). Divided total volume by 5 to get volume of activation buffer. Subtracted volume of activation buffer from total volume and divide by 40 to get volume of acceptor beads (add last). Total volume - acceptor bead volume - activation buffer to get volume of reaction buffer. Added 15 μL to each well and covered with foil. Shaked on orbital shaker for 2 hours at 500 rpm.
(§2) f. Streptavidin Donor Beads Preparation:
Calculated total volume needed (wells×6μL×30%). […]

Jak1 = target: T2, Jak1 (Homo sapiens, UniProt P23458); experiment: Jak1 (PSTAT3 TF1) alpha screen assay: inhibition of IL-6 induced phosphorylation of STAT3 in TF1 cells; format: cell-based; settings: calculated from tabulated EC50 data (Jak1 / Tyk2)
T2 construct: endogenous in cells; host or cells: TF1 cells
Experimental: 2. JAK1 (PSTAT3 TF1) ALPHA SCREEN ASSAY
IL-6 is known to transduce its signal through IL-6 receptor via Jak1. Activity against Jak1 was therefore measured by determining inhibition of IL-6 induced phosphorylation of STAT3 in TF1 cells.
Cell Type: TF1 Cells; Culture Medium: RPMI 1640 Medium, 2mM L-glutamine, 10% heat- inactivated fetal bovine serum (FBS), 10 mM hydroxyethyl piperazineethanesulfonic acid (HEPES), and 2 ng/mL recombinant human interleukin-6(IL-6); Assay Medium: Dulbecco's Modified Eagle Medium (DMEM) medium with 2 mM L-glutamine, 10 mM HEPES, 100 U/mL penicillin/streptomycin, 1.5 g/L sodium bicarbonate, 4.5 g/L glucose, 1 mM sodium pyruvate, 10% heat-inactivated FBS; Compound Preparation: Compounds are dissolved in 100% dimethyl sulfoxide (DMSO).
Day One—Starve Cells: 4 Flasks for one 384 plate (spin down @1000 rpm for 10 minutes and add RPMI 1640 Medium, 2 mM L-glutamine, 10% FBS, 10 mM HEPES with no IL-6 -incubate overnight).
as §1
i. Manual 8-point 1:5 dilution curve: 5 mM top concentration dispensed in row A of a
Corning 96-well polypropylene plate, columns 2-12. DMSO dispensed in position A01 for low and high controls. Compounds were serially diluted 1:5 by adding 10 μL stock to […] DMSO down the plate.
ii. Media dilution of compounds: Serially diluted compounds were further diluted 1:12.5 in assay medium by adding 4 μL compound to 46 μL assay medium in a Corning 96-well polypropylene plate.
384 Alpha Screen Plate Set up: Transfer 2.5 μL/well of compound solution from assay media dilution plate. Replicates were vertical, one column of the 96-well dilution plate goes into one column on the 384-well plate twice. Plated 1×10^5 starved cells/well in 5 μL. Washed cells in 10 mL DMEM medium after spinning down. Brought cell pellet up in assay media. Counted live cells. Multiplied by dilution factor and 10,000 (constant) to get the concentration of viable cells. Multiplied by volume of assay media used to bring up cells to get the total number of live cells. Divided by 20,000,000 cells/mL to get the volume needed. Cells were plated at 5 μL/well in gray Alpha Screen 384-well plate. Spinned the plate to bring the contents to the bottom of the wells at 300 rpm for 60 seconds. Top final compound concentration: 25 μM. Sealed with adhesive and tapped gently. Incubated plate at 37° C. for 30 minutes. c. IL-6 Stimulation (pSTAT3)
Once cells were in incubator, immediately prepared working stock of IL-6 (100 ng/mL final concentration). IL-6 stock=10 μg/mL of IL-6 in phosphate buffered saline with 0.1% bovine serum albumin. Diluted 1:25 by adding 60 μL stock IL-6 to 1440 μL assay media. Added 2.5 μL IL-6 to each well. Spinned plate at 300 rpm briefly; tapped the plate gently before covering with an adhesive seal. Incubated plate at 37° C. for 30 minutes.
Added 2.5 μL of 5X Lysis buffer to each well. Incubated at room temperature on orbital shaker for 10 minutes.
e. Protein (A) Acceptor Beads Preparation:
Phosphorylated Signal Transducer and Activator of Transcription 3 (pSTAT3) was quantified using the PerkinElmer SureFire pSTAT3 (Tyrosine 705) Assay. Calculated total volume needed (wells×[…]×25%). Divided total volume by 5 to get volume of activation buffer. Subtracted volume of activation buffer from total volume and divide by 40 to get volume of acceptor beads (add last). Total volume−acceptor bead volume−activation buffer=volume of reaction buffer. Added 15 μL to each well and covered with foil. Shaked on orbital shaker for 2 hours at 500 rpm.
as §2
Calculated total volume needed (wells×[…]×25%). Divided total volume by 20 to get volume of donor beads (add last). Subtracted volume of donor beads from total volume to get volume of dilution buffer. Added 6 μL to each well and covered with foil. Shaked on orbital shaker overnight at 500 rpm.
Read plate on a Perkin Elmer Envision. […]

T2 sequence (P23458 whole entry): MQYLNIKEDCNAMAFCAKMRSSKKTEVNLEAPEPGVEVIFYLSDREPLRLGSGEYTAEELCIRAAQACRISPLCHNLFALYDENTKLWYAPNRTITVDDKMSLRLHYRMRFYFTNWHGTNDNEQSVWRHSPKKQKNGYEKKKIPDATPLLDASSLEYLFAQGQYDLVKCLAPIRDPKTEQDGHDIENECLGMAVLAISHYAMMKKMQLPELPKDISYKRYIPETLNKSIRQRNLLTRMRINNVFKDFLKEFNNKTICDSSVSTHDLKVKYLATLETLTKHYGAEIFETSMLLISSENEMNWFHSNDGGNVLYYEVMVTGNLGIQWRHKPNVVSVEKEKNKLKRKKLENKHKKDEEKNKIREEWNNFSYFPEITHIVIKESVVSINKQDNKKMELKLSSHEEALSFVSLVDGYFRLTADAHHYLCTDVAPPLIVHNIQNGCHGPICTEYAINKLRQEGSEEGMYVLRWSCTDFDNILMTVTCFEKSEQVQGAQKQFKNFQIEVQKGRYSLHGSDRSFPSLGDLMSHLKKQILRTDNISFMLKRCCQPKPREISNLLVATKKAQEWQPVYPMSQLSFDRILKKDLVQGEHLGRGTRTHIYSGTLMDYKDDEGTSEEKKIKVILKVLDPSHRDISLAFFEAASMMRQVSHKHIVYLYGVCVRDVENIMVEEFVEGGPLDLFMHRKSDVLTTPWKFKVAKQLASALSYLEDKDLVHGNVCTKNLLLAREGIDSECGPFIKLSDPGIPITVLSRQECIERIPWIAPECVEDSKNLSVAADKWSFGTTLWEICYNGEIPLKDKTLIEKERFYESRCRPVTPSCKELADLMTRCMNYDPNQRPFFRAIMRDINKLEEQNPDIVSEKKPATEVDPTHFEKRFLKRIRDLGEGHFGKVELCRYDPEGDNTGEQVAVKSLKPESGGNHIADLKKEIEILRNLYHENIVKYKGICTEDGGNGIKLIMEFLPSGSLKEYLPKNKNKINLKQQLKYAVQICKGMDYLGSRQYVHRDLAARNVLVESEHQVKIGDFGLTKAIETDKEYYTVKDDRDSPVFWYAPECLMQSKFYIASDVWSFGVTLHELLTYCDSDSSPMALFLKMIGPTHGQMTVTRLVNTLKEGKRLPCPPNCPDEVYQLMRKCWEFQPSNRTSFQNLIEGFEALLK
T1 sequence (O60674 whole entry): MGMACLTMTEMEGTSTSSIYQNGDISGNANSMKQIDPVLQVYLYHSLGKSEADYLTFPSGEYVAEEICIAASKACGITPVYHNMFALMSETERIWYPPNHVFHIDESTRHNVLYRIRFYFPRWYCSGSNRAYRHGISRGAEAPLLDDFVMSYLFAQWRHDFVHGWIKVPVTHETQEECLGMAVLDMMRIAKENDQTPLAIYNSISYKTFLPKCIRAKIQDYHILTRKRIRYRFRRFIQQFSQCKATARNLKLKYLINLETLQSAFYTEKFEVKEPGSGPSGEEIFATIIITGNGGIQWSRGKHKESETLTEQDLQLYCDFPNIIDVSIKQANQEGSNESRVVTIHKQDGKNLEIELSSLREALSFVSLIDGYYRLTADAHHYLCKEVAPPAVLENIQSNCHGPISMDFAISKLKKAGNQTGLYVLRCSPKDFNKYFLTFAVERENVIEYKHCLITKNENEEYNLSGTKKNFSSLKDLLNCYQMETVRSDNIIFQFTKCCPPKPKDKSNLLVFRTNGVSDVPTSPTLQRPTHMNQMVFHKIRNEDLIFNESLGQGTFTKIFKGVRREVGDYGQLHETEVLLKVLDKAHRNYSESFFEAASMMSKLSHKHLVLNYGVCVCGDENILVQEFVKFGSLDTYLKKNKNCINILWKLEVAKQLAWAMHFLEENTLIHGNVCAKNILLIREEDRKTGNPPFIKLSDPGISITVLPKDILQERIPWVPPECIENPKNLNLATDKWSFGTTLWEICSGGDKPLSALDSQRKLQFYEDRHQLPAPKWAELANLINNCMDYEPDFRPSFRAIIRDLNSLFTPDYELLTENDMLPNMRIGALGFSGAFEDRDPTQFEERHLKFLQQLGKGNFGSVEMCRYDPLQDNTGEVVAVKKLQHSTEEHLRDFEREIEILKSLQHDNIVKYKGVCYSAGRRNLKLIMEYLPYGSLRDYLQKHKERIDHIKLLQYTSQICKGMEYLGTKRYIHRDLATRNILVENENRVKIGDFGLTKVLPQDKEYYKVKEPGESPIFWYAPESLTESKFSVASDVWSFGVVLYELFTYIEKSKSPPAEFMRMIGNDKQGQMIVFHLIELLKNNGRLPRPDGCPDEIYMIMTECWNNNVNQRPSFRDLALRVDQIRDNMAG

Structure (SMILES)	Tyk2 selectivity over Jak2 (Jak2)	Tyk2 selectivity over Jak1 (Jak1)
CO[C@@]1(c2cc(C(F)F)cc(-c3cn(C4COC4)c4cnc(NC(C)=O)cc34)n2)CCOC1 [Example 4.3, (R)-N-(3-(4-(difluoromethyl)-6-(3-methoxytetrahydrofuran-3-yl)pyridin-2-yl)-1-(oxetan-3-yl)-1H-pyrrolo[2,3-c]pyridin-5-yl)acetamide]	>144-fold	310-fold
CO[C@@]1(c2cc(C)cc(-c3cn(C)c4cnc(NC(C)=O)cc34)n2)CCOC1 [Example 2.2, (R)-N-(3-(6-(3-methoxytetrahydrofuran-3-yl)-4-methylpyridin-2-yl)-1-methyl-1H-pyrrolo[2,3-c]pyridin-5-yl)acetamide]	>126-fold	207-fold
COC1(c2cccc(-c3cn(C)c4cnc(NC(N)=O)cc34)n2)COC1 [Example 1b.4, 1-(3-(6-(3-methoxyoxetan-3-yl)pyridin-2-yl)-1-methyl-1H-pyrrolo[2,3-c]pyridin-5-yl)urea]	>176-fold	54-fold
CO[C@@]1(c2cc(OCC3COC3)cc(-c3cn(C)c4cnc(NC(C)=O)cc34)n2)CCOC1 [Example 6, (R)-N-(3-(6-(3-Methoxytetrahydrofuran-3-yl)-4-(oxetan-3-ylmethoxy)pyridin-2-yl)-1-methyl-1H-pyrrolo[2,3-c]pyridin-5-yl)acetamide]	>500-fold	420-fold
CC[C@]1(c2cc(C#N)cc(-c3cn(C)c4cnc(NC(C)=O)cc34)n2)CCOC1 [Example 2.11, (R)-N-(3-(4-cyano-6-(3-ethyltetrahydrofuran-3-yl)pyridin-2-yl)-1-methyl-1H-pyrrolo[2,3-c]pyridin-5-yl)acetamide]	>240-fold	72-fold
COCc1cc(-c2cn(C3COC3)c3cnc(NC(C)=O)cc23)nc([C@]2(OC)CCOC2)c1 [Example 4, (R)-N-(3-(4-(methoxymethyl)-6-(3-methoxytetrahydrofuran-3-yl)pyridin-2-yl)-1-(oxetan-3-yl)-1H-pyrrolo[2,3-c]pyridin-5-yl)acetamide]	>182-fold	>730-fold

Second part, the compound after the results:

Tyk2 selectivity over Jak2 (Jak2)	Tyk2 selectivity over Jak1 (Jak1)	Structure (SMILES)
>174-fold	243-fold	CO[C@@]1(c2cc(C(F)F)cc(-c3cn([C@H]4C[C@H](C#N)C4)c4cnc(NC(C)=O)cc34)n2)CCOC1 [Example 17.2, N-(1-((trans)-3-cyanocyclobutyl)-3-(4-(difluoromethyl)-6-((R)-3-methoxytetrahydrofuran-3-yl)pyridin-2-yl)-1H-pyrrolo[2,3-c]pyridin-5-yl)acetamide]
>192-fold	85-fold	COc1cc(-c2cn(C)c3cnc(NC(C)=O)cc23)nc([C@]2(CO)CCOC2)c1 [Example 22.6, (S)-N-(3-(6-(3-(hydroxymethyl)tetrahydrofuran-3-yl)-4-methoxypyridin-2-yl)-1-methyl-1H-pyrrolo[2,3-c]pyridin-5-yl)acetamide]
>313-fold	35-fold	CC(=O)Nc1cc2c(-c3cccc([C@]4(CO)CCOC4)n3)cn(C)c2cn1 [Example 21, (S)-N-(3-(6-(3-(Hydroxymethyl)tetrahydrofuran-3-yl)pyridin-2-yl)-1-methyl-1H-pyrrolo[2,3-c]pyridin-5-yl)acetamide]
>171-fold	486-fold	CO[C@@]1(c2cc(OC[C@H](C)O)cc(-c3cn(C)c4cnc(NC(C)=O)cc34)n2)CCOC1 [Example 14.5, N-(3-(4-((S)-2-hydroxypropoxy)-6-((R)-3-methoxytetrahydrofuran-3-yl)pyridin-2-yl)-1-methyl-1H-pyrrolo[2,3-c]pyridin-5-yl)acetamide]
>1000-fold	1960-fold	COCCOc1cc(-c2cn(C)c3cnc(NC(C)=O)cc23)nc([C@]2(OC)CCOC2)c1 [Example 25, (R)-N-(3-(4-(2-methoxyethoxy)-6-(3-methoxytetrahydrofuran-3-yl)pyridin-2-yl)-1-methyl-1H-pyrrolo[2,3-c]pyridin-5-yl)acetamide]
